In brackets after ≈: the same amount, converted by molar mass. Where only a bound is given, the exact number is not on record here.

The results in this text go back to US7547513B2, “Mutants of deoxycytidine kinase having extended enzymatic activity” (priority 2001, dated 2009).

Test [1] has as its system Escherichia coli β7338 Δdeo tdk cdd::Tn10 pSUDCK4 (dck:D133E-R104Q). It counts as cell-based. To be noted: strain β7338, dck allele D133E R104Q; 18 h 37° C., MS medium + IPTG. As to the method:
(§1) The culture was then diluted 100 times in the same medium supplemented with IPTG and distributed on 96-well microplates in a final volume of 100 μl in a series of dilutions from to 2 to 2 nucleotide analogues. Each analogue was tested twice. After incubation for 18 hours at 37° C. with stirring, the MIC was determined as corresponding to the lowest analogue concentration for which no turbidity was detectable.
(§2) The toxicity of nucleoside analogues, deviating either by the sugar or by the base, was evaluated in strains of genotype Δdeo tdk cdd expressing on a plasmid the different dckH alleles, wild-type allele, D133E, R104Q and double mutant.
(§3) The minimum inhibitory concentrations, expressed in microM, were determined as indicated in the section Materials and Methods.

Test [2] has as its system Escherichia coli β7334 Δdeo tdk cdd::Tn10 pSUTrc (dck allele: none). Format: cell-based. As to conditions: strain β7334, dck allele none; 18 h 37° C., MS medium + IPTG. As to the method: as §1, §2, §3
For test [3], the system named is bacteria of genotype Δdeo tdk p::dckH+ (β7134 cells). Kind of test: Selection of the DCK mutants in vivo (mutagenesis of dck gene by promutagenic nucleosides). It counts as cell-based, Escherichia coli. As to the method: Selection of the DCK mutants in vivo: a 12-hour culture of the β7134 cells in MS medium supplemented with 50 mg/l of carbenicillin was diluted 100 times in the same medium and cultured with aeration until turbidity of 0.100 (600 nm) was reached. The culture was then diluted 25 times in the same medium with or without IPTG and supplemented with variable concentrations (5 to 30 μM) of the promutagenic nucleoside analogues disoG and disoA then cultured with aeration for 18 hours. The cells were rinsed then plated on MH dishes supplemented with trimethoprim, thymidine and IPTG. Colonies appeared after incubation for 36 hours at 37° C. No colony was obtained in the absence of nucleoside analogue.
We took advantage of the conditional mutating property of DCK in the presence of promutagenic nucleoside analogues in order to subject its own dck gene to an episode of mutagenesis in vivo. Thus, bacteria of genotype Δdeo tdk p::dckH+ were exposed either to 2′-deoxy-iso-adenosine (disoA) or to 2′ deoxy-iso-guanosine (disoG), then incubated on solid rich medium in the presence of trimethoprim and thymidine. Colonies appeared following the administration of the two compounds at a frequency of the order of 10^−8. No colony survived in the absence of promutagenic nucleoside.
These alleles are designated dckH*. A plasmid combining the two mutations in the same allele, dckH**, was constructed and introduced into the strain β7117 of genotype Δdeo tdk. This allowed the complementation of the tdk mutation, thus also expressing a thymidine kinase activity. The different alleles selected are itemized in Table 2 below.

For test [4], the system named is Escherichia coli β7336 Δdeo tdk cdd::Tn10 pSUDCK2 (dck:D133E). Format: cell-based. To be noted: strain β7336, dck allele D133E; 18 h 37° C., MS medium + IPTG. As to the method:
(§4) The culture was then diluted 100 times in the same medium supplemented with IPTG and distributed on 96-well microplates in a final volume of 100 μl in a series of dilutions from to 2 to 2 nucleotide analogues. Each analogue was tested twice.
as §2, §3

Test [5] has as its system Escherichia coli β7337 Δdeo tdk cdd::Tn10 pSUDCK3 (dck:R104Q). Format: cell-based. To be noted: for minimum inhibitory concentration (MIC): strain β7337, dck allele R104Q, 18 h 37° C., MS medium + IPTG. How it is done:
as §4, §2, §3

Test [6] deals with Escherichia coli β7341 Δdeo tdk cdd::Tn10 (dckH D133E, amkG wt). The experiment in a line: microbe, parasite or virus in culture. Format: cell-based. As to conditions: strain β7341, dckH D133E, amkG wt. As to the method:
as §1
(§5) We jointly expressed, within the genetic context Δdeo tdk cdd each of the four alleles of dckH with each of the two wt and T39A alleles of amkG, and tested the toxicity of the different nucleoside analogues already tested previously (Table 4 below).
as §3

For test [7], the system named is Escherichia coli β7345 Δdeo tdk cdd::Tn10 (dckH wt, amkG T39A). Kind of test: microbe, parasite or virus in culture. It counts as cell-based. As to conditions: strain β7345, dckH wt, amkG T39A. How it is done: as §1, §5, §3
Test [8] concerns Escherichia coli β7344 Δdeo tdk cdd::Tn10 (dckH none, amkG T39A). Kind of test: microbe, parasite or virus in culture. Format: cell-based. To be noted: strain β7344, dckH none, amkG T39A. As to the method:
as §1, §5, §3

Test [9] relates to Escherichia coli β7342 Δdeo tdk cdd::Tn10 (dckH R104Q, amkG wt). The experiment in a line: microbe, parasite or virus in culture. It counts as cell-based. As to conditions: strain β7342, dckH R104Q, amkG wt. How it is done:
as §1, §5, §3

Test [10] deals with Escherichia coli β7347 Δdeo tdk cdd::Tn10 (dckH R104Q, amkG T39A). Kind of test: microbe, parasite or virus in culture. Format: cell-based. As to conditions: strain β7347, dckH R104Q, amkG T39A. How it is done:
as §1, §5, §3

For test [11], the system named is Escherichia coli β7348 Δdeo tdk cdd::Tn10 (dckH D133E R104Q, amkG T39A). The experiment in a line: microbe, parasite or virus in culture. It counts as cell-based. As to conditions: strain β7348, dckH D133E R104Q, amkG T39A. How it is done:
as §1, §5, §3

Test [12] concerns Escherichia coli β7346 Δdeo tdk cdd::Tn10 (dckH D133E, amkG T39A). The experiment in a line: microbe, parasite or virus in culture. It counts as cell-based. To be noted: strain β7346, dckH D133E, amkG T39A. How it is done: as §1, §5, §3
Test [13] has as its system Escherichia coli β7339 Δdeo tdk cdd::Tn10 (dckH none, amkG wt). The experiment in a line: microbe, parasite or virus in culture. It counts as cell-based. To be noted: strain β7339, dckH none, amkG wt. As to the method: as §1, §5, §3
The test system of test [14] is Escherichia coli β7343 Δdeo tdk cdd::Tn10 (dckH D133E R104Q, amkG wt). Kind of test: microbe, parasite or virus in culture. It counts as cell-based. As to conditions: strain β7343, dckH D133E R104Q, amkG wt. As to the method:
as §1, §5, §3

In test [15] the test system is Escherichia coli β7340 Δdeo tdk cdd::Tn10 (dckH wt, amkG wt). The experiment in a line: microbe, parasite or virus in culture. As to conditions: strain β7340, dckH wt, amkG wt. Format: cell-based. How it is done:
as §1, §5, §3

The subject of test [16] is Escherichia coli β7335 Δdeo tdk cdd::Tn10 pSUDCK1 (dck wt). It counts as cell-based. As to conditions: strain β7335, dck allele wt; 18 h 37° C., MS medium + IPTG. As to the method: as §4, §2, §3
Where [17] appears, read: sequenced mutant plasmids obtained independently.

With `Nc1ncc2ncn([C@H]3C[C@H](O)[C@@H](CO)O3)c2n1` [disoA, 2-amino-9-(2′-deoxy-β-D-ribofuranosyl)purine], the “minimum inhibitory concentration (MIC)” value in test [1] was “> (no toxicity could be detected at the highest analogue concentration, 1.28 mM)”; in test [2], “> (no toxicity could be detected at the highest analogue concentration, 1.28 mM)”; in [4], 10 µM; in [6], “> (no toxicity could be detected at the highest analogue concentration, 1280 microM)”; in test [7], “> (no toxicity could be detected at the highest analogue concentration, 1280 microM)”; in test [8], “> (no toxicity could be detected at the highest analogue concentration, 1280 microM)”. The “minimum inhibitory concentration (MIC)” value in [9] was “> (no toxicity could be detected at the highest analogue concentration, 1280 microM)”; in test [10] it was “> (no toxicity could be detected at the highest analogue concentration, 1280 microM)”; in test [11] it was “> (no toxicity could be detected at the highest analogue concentration, 1280 microM)”; in test [12], 10 µM (≈ 2.51 µg/mL); in test [13], “> (no toxicity could be detected at the highest analogue concentration, 1280 microM)”; in test [14], 1280 µM (≈ 322 µg/mL). Further, the “minimum inhibitory concentration (MIC)” value in test [15] is reported as “> (no toxicity could be detected at the highest analogue concentration, 1280 microM)”. The “frequency of colonies on solid rich medium with trimethoprim and thymidine after exposure” value in [3] (no colony in the absence of promutagenic nucleoside) is on record as ~10^−8. Also, the “Frequency of mutation detected C → A, codon 133 GAC, Asp → Glu” value in test [3] (setting [17]) was 1/3. Further, the “Frequency of mutation detected C → G, codon 133 GAC, Asp → Glu” value in test [3] (setting [17]) is listed as 1/3. In addition, in [3] (setting [17]), the “Frequency of mutation detected G → A, codon 133 CGA, Arg → Glu” value was 1/3. Besides, the “effect of the mutation on toxicity” value in test [5] (mutation R104Q) is on record as “no effect”.

In the case of `Nc1ncnc2c1ncn2[C@H]1CC[C@@H](CO)O1` [ddA], the “minimum inhibitory concentration (MIC)” value in test [1], in [2], in test [4], in [5] and in test [16] was 80 µM in each case.

With `Nc1ccn([C@@H]2O[C@H](CO)[C@@H](O)[C@@H]2O)c(=O)n1` [araC, arabinocytidine], the “minimum inhibitory concentration (MIC)” value in [1] is 320 µM; in test [2], “> (no toxicity could be detected at the highest analogue concentration, 1.28 mM)”; in test [4], 20 µM; in [5], 20 µM; in [16], 160 µM.

`O=c1[nH]cnc2c1ncn2[C@H]1CC[C@@H](CO)O1` [ddI]: the “minimum inhibitory concentration (MIC)” value amounted to 40 µM in [1]; 80 µM in [2]; 40 µM in test [4]; 20 µM in test [5]; 40 µM in test [16].
